Reference: patent publication US20230183243A1, “HETEROARYL DERIVATIVES AND PHARMACEUTICAL COMPOSITION COMPRISING SAME AS ACTIVE INGREDIENT” (VORONOI INC., priority 2019, published 2023)

Key:
GAK = target: T1, GAK (Homo sapiens, UniProt O14976); test: ScanMAX Kinase panel (DiscoverX); format: binding; settings: read-out: % Cont @ 1 μM
T1 construct: purchased DiscoverX Corp. ScanMAX Kinase panel
Protocol: (§1) Further, to evaluate the inhibitory activity of the compound according to the present invention against more enzymes, an experiment was performed as follows. Specifically, the enzyme (kinase) selectivity of the compound of Example 64 selected from the Example compounds of the present invention was measured by commissioning DiscoverX Corp., and an experiment was performed using a panel for ScanMAX™ Kinase analysis. In this case, the concentration of a drug treated with the enzyme was set at 1 μM in DMSO, and the percent control (% control) were defined in the same manner as in the following Expression 1.
(§2) (Example compound−Positive control)/(Negative control−Positive control)×100 [Expression 1]
(§3) Wherein the positive control represents a compound having a percent control of 0%, and the negative control represents a compound having a percent control of 100% in DMSO. For the enzyme selectivity of the present invention, the compound was also judged to have activity against the corresponding enzyme when the percent control for each of the enzymes was <35% (i.e., less than 35%).

FLT3(ITD) = test: ScanMAX Kinase panel (DiscoverX); format: binding
Protocol: as §1, §2, §3

DYRK1B = target: T2, DYRK1B (Homo sapiens, UniProt Q9Y463); test: ScanMAX Kinase panel (DiscoverX); format: binding; settings: read-out: % Cont @ 1 μM
T2 construct: purchased DiscoverX Corp. ScanMAX Kinase panel
Protocol: as §1, §2, §3

[1] = target: T3, TYK2(JH1domain-catalytic) (Homo sapiens, UniProt P29597); test: ScanMAX Kinase panel (DiscoverX); format: binding
T3 construct: TYK2(JH1domain-; purchased DiscoverX Corp. (ScanMAX Kinase panel, commissioned)
T3 sequence (P29597 897-1176 limits assumed): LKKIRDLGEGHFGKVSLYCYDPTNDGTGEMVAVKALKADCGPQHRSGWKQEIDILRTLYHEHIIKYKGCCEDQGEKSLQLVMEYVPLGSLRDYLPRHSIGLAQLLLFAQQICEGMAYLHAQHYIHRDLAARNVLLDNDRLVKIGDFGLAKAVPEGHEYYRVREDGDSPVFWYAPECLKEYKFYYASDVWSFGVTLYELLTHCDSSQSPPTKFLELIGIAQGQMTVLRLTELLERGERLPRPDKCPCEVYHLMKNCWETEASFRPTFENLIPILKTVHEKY
Protocol: as §1, §2, §3

CSNK1D = target: T4, CSNK1D (Homo sapiens, UniProt P48730); test: ScanMAX Kinase panel (DiscoverX); format: binding; settings: read-out: % Cont @ 1 μM
T4 construct: purchased DiscoverX Corp. ScanMAX Kinase panel
Protocol: as §1, §2, §3

MEK4 = target: T5, MEK4 (Homo sapiens, UniProt P45985); test: ScanMAX Kinase panel (DiscoverX); format: binding; settings: read-out: % Cont @ 1 μM
T5 construct: purchased DiscoverX Corp. ScanMAX Kinase panel
T5 sequence (P45985 whole entry): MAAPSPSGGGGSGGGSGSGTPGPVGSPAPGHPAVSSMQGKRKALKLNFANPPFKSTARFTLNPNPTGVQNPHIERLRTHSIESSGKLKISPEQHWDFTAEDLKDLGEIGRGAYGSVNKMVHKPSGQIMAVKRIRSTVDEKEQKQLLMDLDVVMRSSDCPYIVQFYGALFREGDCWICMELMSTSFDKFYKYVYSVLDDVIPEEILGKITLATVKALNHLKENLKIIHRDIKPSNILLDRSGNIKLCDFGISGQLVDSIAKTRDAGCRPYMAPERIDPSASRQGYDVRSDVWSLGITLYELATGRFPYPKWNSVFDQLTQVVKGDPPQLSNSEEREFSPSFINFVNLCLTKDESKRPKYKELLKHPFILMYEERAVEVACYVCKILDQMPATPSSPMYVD
Protocol: as §1, §2, §3

RIOK1 = target: T6, RIOK1 (Homo sapiens, UniProt Q9BRS2); test: ScanMAX Kinase panel (DiscoverX); format: binding; settings: read-out: % Cont @ 1 μM
T6 construct: purchased DiscoverX Corp. ScanMAX Kinase panel
T6 sequence (Q9BRS2 whole entry): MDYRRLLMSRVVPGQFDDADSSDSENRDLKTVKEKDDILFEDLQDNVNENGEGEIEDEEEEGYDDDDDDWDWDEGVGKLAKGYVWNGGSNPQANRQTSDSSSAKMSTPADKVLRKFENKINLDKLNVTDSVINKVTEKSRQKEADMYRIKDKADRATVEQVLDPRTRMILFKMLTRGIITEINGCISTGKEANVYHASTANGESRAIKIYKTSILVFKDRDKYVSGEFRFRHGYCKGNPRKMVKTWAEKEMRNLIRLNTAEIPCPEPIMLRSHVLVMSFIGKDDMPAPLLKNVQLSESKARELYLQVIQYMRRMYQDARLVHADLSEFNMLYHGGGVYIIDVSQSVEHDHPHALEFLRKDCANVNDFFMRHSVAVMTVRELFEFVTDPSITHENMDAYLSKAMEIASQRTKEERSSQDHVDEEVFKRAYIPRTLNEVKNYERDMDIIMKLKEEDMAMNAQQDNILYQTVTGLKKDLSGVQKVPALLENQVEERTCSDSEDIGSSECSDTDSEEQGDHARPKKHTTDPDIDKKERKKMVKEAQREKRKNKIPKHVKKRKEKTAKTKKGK
Protocol: as §1, §2, §3

FLT3(ITD, D835V) = test: ScanMAX Kinase panel (DiscoverX); format: binding
Protocol: as §1, §2, §3

YSK4 = target: T7, YSK4 (Homo sapiens, UniProt Q56UN5); test: ScanMAX Kinase panel (DiscoverX); format: binding; settings: read-out: % Cont @ 1 μM
T7 construct: purchased DiscoverX Corp. (ScanMAX Kinase panel, commissioned)
Protocol: as §1, §2, §3

LRRK2 = LRRK2 (Homo sapiens, UniProt Q5S007); test: ScanMAX Kinase panel (DiscoverX); format: binding; parameters: purchased DiscoverX Corp. (ScanMAX Kinase panel, commissioned); settings: read-out: % Cont @ 1 μM
LRRK2, sequence (Q5S007 whole entry): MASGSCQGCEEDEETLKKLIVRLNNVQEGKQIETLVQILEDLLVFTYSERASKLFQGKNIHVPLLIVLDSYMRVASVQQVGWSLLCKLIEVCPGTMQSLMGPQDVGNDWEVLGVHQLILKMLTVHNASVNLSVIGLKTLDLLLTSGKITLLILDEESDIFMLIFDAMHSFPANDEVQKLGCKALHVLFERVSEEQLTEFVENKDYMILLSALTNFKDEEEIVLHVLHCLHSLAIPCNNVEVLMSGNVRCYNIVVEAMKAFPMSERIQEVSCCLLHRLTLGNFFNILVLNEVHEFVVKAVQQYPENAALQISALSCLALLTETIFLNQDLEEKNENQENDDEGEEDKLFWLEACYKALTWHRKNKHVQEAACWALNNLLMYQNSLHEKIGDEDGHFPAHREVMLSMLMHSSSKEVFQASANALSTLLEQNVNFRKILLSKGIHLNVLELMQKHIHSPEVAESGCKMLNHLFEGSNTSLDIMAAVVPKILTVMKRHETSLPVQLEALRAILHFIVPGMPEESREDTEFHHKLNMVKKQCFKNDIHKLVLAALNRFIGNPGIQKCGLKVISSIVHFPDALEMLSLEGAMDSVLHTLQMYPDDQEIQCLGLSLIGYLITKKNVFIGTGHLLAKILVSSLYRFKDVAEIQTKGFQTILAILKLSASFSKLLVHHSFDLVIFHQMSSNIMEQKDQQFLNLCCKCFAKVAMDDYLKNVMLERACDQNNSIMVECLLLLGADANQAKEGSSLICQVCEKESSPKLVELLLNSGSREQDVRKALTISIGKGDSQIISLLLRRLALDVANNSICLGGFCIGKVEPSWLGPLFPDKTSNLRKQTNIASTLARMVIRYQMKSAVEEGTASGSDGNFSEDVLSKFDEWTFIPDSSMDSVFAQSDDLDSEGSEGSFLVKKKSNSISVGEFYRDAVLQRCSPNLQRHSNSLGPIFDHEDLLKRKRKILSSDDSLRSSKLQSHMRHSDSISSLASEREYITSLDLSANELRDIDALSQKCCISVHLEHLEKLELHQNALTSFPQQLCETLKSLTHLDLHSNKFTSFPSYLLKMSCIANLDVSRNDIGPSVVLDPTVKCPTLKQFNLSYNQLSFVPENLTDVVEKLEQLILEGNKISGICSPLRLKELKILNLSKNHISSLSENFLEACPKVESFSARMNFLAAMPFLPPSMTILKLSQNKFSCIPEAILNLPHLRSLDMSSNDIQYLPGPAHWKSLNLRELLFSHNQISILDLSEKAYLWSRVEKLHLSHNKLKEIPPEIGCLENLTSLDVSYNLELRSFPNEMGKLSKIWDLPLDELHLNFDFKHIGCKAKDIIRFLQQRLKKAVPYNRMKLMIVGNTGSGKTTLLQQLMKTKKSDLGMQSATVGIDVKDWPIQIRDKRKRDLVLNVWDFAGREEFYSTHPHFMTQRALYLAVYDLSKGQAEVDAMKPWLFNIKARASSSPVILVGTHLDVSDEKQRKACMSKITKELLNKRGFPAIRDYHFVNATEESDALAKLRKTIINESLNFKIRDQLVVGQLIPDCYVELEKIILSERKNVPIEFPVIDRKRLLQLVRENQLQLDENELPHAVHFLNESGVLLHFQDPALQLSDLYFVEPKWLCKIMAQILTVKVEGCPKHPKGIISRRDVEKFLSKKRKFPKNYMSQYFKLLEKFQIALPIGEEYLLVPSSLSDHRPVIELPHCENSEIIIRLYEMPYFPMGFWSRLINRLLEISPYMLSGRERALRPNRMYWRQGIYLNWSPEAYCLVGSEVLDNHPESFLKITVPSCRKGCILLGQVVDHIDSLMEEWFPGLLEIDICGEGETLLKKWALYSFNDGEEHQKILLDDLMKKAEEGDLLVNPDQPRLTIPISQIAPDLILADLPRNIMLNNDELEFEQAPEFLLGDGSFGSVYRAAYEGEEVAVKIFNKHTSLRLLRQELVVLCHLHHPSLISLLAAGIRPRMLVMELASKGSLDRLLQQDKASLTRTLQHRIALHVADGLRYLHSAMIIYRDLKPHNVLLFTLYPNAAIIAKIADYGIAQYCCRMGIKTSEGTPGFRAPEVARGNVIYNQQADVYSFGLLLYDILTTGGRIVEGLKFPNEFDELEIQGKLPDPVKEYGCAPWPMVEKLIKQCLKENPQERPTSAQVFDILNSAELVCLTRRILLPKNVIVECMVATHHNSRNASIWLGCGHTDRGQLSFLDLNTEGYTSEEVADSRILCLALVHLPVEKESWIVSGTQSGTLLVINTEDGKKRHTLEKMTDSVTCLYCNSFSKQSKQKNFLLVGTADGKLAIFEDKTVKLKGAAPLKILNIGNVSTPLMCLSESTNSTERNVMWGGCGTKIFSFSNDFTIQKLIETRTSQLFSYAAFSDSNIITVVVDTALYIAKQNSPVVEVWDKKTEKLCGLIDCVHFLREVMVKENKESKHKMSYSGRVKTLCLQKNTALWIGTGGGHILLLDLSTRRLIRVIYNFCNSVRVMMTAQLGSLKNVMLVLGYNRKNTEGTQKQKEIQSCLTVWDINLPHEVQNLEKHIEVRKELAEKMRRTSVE
Protocol: (§4) Specifically, the enzyme (kinase) selectivity of the compound of Example 7 selected from the Example compounds of the present invention was measured by commissioning DiscoverX Corp., and an experiment was performed using a panel for ScanMAX™ Kinase analysis.
(§5) In this case, the concentration of a drug treated with the enzyme was set at 1 μM in DMSO, and percent control (% control) was defined in the same manner as in the following Expression 1.
as §2
as §3, with “<30%” for “<35%”, “30%).” for “35%).”
as §1, §3

TTK [2] = target: T8, TTK (Homo sapiens, UniProt P33981); test: ScanMAX Kinase panel (DiscoverX); format: binding; parameters: purchased DiscoverX Corp. (ScanMAX Kinase panel, commissioned); settings: read-out: % Cont @ 1 μM
T8 sequence (P33981 1-857): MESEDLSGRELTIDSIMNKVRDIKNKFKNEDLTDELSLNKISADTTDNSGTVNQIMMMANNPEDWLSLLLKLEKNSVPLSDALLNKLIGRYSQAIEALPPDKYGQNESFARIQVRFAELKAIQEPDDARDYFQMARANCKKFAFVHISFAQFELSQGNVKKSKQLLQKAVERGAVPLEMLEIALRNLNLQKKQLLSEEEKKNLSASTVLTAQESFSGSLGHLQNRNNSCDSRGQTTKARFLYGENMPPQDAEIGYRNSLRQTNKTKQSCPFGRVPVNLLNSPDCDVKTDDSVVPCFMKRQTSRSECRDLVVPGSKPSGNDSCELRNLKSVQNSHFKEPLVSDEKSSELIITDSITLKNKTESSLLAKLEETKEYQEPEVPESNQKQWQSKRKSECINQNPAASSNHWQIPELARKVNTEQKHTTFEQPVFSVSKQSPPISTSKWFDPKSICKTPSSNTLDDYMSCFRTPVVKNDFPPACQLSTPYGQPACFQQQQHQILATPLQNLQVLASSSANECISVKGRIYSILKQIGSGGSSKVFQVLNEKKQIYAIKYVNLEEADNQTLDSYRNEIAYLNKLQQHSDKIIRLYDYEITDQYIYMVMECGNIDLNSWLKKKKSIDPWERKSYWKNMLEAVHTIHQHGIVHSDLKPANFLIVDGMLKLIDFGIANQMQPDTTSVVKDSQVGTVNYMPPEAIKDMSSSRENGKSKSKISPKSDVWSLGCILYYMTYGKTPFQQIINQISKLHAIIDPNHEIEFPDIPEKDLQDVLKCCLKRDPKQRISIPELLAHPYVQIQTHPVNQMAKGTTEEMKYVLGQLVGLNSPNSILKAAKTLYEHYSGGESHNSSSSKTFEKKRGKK
Protocol: as §4, §5, §2
as §3, with “<30%” for “<35%”, “30%).” for “35%).”
as §1, §3

TTK [3] = target: T8, TTK; test: TTK enzyme activity, ADP-Glo kinase assay; format: biochemical; parameters: purchased SignalChem T20-10G; settings: purified human TTK, ATP 10 μM, 25° C., 2 hours
Procedure, shortened: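 ADP-Glo read-out; percent inhibition at each compound concentration was relative to the solvent-only control. The reactions contained 25 ng enzyme, 0.2 μg substrate and 10 μM ATP in 40 mM Tris-HCl pH 7.4 with 20 mM MgCl2, 0.5 mg/mL BSA and 50 μM DTT, and ran 2 h at 25 °C.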

FLT3(D835V) = target: T9, FLT3(D835V) (Homo sapiens, UniProt P36888, D835V); test: ScanMAX Kinase panel (DiscoverX); format: binding; settings: read-out: % Cont @ 1 μM
T9 construct: purchased DiscoverX Corp. (ScanMAX Kinase panel, commissioned)
Protocol: as §4, §5, §2
as §3, with “<30%” for “<35%”, “30%).” for “35%).”

MEK3 = target: T10, MEK3 (Homo sapiens, UniProt P46734); test: ScanMAX Kinase panel (DiscoverX); format: binding; settings: read-out: % Cont @ 1 μM
T10 construct: purchased DiscoverX Corp. (ScanMAX Kinase panel, commissioned)
Protocol: as §4, §5, §2
as §3, with “<30%” for “<35%”, “30%).” for “35%).”

T1 sequence (O14976 whole entry): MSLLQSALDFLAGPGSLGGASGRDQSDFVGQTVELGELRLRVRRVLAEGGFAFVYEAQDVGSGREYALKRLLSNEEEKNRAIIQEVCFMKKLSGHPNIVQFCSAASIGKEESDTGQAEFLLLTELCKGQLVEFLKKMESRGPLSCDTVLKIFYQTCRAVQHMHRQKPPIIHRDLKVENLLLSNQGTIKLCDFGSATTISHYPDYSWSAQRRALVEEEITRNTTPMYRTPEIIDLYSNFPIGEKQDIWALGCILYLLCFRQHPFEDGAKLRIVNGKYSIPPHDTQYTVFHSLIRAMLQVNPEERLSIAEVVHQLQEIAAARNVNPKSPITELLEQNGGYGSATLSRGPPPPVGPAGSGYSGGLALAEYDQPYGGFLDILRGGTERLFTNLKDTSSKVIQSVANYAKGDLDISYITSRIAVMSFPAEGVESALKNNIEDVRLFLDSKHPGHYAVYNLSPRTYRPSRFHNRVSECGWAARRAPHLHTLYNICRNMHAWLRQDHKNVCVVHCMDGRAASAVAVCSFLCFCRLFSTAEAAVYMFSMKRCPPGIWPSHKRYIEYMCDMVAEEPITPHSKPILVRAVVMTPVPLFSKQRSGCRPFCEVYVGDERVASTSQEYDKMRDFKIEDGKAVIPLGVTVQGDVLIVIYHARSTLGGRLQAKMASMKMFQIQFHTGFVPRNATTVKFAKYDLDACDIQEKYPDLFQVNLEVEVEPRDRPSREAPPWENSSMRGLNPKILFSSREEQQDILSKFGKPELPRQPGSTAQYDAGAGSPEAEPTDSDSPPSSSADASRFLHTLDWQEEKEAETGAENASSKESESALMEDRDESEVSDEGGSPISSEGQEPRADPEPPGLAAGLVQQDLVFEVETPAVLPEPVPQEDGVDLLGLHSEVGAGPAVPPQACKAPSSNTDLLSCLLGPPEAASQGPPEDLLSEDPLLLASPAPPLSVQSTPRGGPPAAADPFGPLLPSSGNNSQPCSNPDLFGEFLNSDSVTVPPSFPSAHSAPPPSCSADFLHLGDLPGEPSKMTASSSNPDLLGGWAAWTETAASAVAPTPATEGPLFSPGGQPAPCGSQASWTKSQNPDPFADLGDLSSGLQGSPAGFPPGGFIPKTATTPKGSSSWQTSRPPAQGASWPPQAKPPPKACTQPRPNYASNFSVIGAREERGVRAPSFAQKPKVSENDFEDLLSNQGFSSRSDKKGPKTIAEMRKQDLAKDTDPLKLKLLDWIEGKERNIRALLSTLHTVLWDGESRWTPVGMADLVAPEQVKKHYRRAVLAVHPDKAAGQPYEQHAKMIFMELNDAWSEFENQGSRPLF

Row | SMILES | remaining binding at 1 µM (GAK) [%] | % Cont @ 1 μM (FLT3(ITD)) [%] | remaining binding at 1 µM (DYRK1B) [%] | % Cont @ 1 μM [1] [%] | percent of control at 1 µM (CSNK1D) [%] | remaining binding at 1 µM (MEK4) [%] | remaining binding at 1 µM (RIOK1) [%] | % Cont @ 1 μM (FLT3(ITD, D835V)) [%] | percent of control binding at 1 µM (YSK4) [%] | percent of control binding at 1 µM (LRRK2) [%] | percent of control at 1 µM (TTK [2]) [%] | IC50 (TTK [3]) [nM] | remaining binding at 1 µM (FLT3(D835V)) [%] | remaining binding at 1 µM (MEK3) [%]
1 | COc1cc(N2CCCC2=O)ccc1Nc1cc(NC2CCCCC2)c2c(C#N)c[nH]c2n1 [Example 64, 4-(cyclohexylamino)-6-((2-methoxy-4-(2-oxopyrrolidin-1-yl)phenyl)amino)-1H-pyrrolo[2,3-b] pyridine-3-carbonitrile] | 4.4 | 17 | 28 | 1.7 | 19 | 27 | 27 | 1.2 | 0.3 | 14 | 0.25 | < 50 | – | –
2 | COc1cc(-c2ccnn2C)ccc1Nc1nc(NC2CCCCC2)c2c(C#N)c[nH]c2n1 [Example 7, 4-(cyclohexylamino)-2-((2-methoxy-4-(1-methyl-1H-pyrazol-5-yl)phenyl)amino)-7H-pyrrolo[2,3-d] pyrimidine-5-carbonitrile] | – | – | – | – | – | – | – | – | – | 4.8 | 0.25 | < 50 | 5.6 | 18
